Each structure is given as a SMILES string. Counter-ions that a name gives are not always drawn. Where only a bound is given, the exact number is not on record here.

The target in this assay is rat TRPV1 (Rattus norvegicus (Rat), UniProt O35433). Conditions: read-out: Rat IC50.
rat TRPV1, sequence (O35433 whole entry): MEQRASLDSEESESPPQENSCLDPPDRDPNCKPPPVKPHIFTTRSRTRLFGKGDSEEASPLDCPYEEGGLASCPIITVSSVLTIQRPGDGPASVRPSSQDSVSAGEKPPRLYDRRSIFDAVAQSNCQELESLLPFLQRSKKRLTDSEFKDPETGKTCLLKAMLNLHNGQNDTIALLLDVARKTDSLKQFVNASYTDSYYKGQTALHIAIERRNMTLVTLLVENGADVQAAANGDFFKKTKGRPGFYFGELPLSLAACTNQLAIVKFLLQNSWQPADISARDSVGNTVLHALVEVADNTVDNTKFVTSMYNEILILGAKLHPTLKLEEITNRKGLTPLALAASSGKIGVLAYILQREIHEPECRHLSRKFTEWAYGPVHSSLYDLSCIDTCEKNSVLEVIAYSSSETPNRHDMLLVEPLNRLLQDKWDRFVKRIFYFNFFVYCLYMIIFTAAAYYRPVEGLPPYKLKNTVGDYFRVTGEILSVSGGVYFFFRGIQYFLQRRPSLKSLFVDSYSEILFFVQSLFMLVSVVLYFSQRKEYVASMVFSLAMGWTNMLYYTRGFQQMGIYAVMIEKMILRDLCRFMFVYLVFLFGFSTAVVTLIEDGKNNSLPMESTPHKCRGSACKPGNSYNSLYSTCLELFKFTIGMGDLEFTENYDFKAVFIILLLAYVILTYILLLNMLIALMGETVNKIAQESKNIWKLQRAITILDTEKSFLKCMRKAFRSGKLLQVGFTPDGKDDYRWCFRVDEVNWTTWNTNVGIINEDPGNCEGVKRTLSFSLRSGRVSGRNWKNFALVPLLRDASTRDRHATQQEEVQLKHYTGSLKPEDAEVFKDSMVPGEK
For `FC(F)(F)c1ccc(Nc2nc(OC3CCCCC3)nc3c2CCN(c2ncccc2C(F)(F)F)CC3)cc1` [Example 338, 2-(Cyclohexyloxy)-N-[4-(trifluoromethyl)phenyl]-7-[3-(trifluoromethyl)pyridin-2-yl]-6,7,8,9-tetrahydro-5H-pyrimido[4,5-d]azepin-4-amine], the IC50 stood at 400 nM.

In the case of `FC(F)(F)c1ccc(Nc2nc(OC3CCOCC3)nc3c2CCN(c2ncccc2C(F)(F)F)CC3)cc1` [Example 339, 2-(Tetrahydro-2H-pyran-4-yloxy)-N-[4-(trifluoromethyl)phenyl]-7-[3-(trifluoromethyl)pyridin-2-yl]-6,7,8,9-tetrahydro-5H-pyrimido[4,5-d]azepin-4-amine], the 50% inhibitory concentration (IC50) came to 190 nM.

Take `FC(F)(F)c1ccc(Nc2nc(OC3CCOC3)nc3c2CCN(c2ncccc2C(F)(F)F)CC3)cc1` (centres unmarked) [Example 340, 2-(Tetrahydrofuran-3-yloxy)-N-[4-(trifluoromethyl)phenyl]-7-[3-(trifluoromethyl)pyridin-2-yl]-6,7,8,9-tetrahydro-5H-pyrimido[4,5-d]azepin-4-amine]: the IC50 stood at 260 nM.

`CC(C)Oc1nc2c(c(Nc3ccc(C(F)(F)F)cc3)n1)CCN(c1ncccc1C(F)(F)F)CC2` [Example 341, 2-[(1-Methylethyl)oxy]l-N-[4-(trifluoromethyl)phenyl]-7-[3-(trifluoromethyl)pyridin-2-yl]-6,7,8,9-tetrahydro-5H-pyrimido[4,5-d]azepin-4-amine trifluoroacetic acid salt]: the IC50 was found to be 150 nM.

As to `FC(F)(F)c1ccc(Nc2nc(Oc3ccccc3)nc3c2CCN(c2ncccc2C(F)(F)F)CC3)cc1` [Example 342, 2-(Phenyloxy)-N-[4-(trifluoromethyl)phenyl]-7-[3-(trifluoromethyl)pyridin-2-yl]-6,7,8,9-tetrahydro-5H-pyrimido[4,5-d]azepin-4-amine trifluoroacetic acid salt], the IC50 turned out to be 60 nM.

As for `CCCCOc1nc2c(c(Nc3ccc(C(F)(F)F)cc3)n1)CCN(c1ncccc1C(F)(F)F)CC2` [Example 343, 2-(Butyloxy)-N-[4-(trifluoromethyl)phenyl]-7-[3-(trifluoromethyl)pyridin-2-yl]-6,7,8,9-tetrahydro-5H-pyrimido[4,5-d]azepin-4-amine], the half-inhibitory concentration (IC50) turned out to be 60 nM.

Take `CCOc1nc2c(c(Nc3ccc(C(F)(F)F)cc3)n1)CCN(c1ncccc1C(F)(F)F)CC2` [Example 345, 2-(Ethyloxy)-N-[4-(trifluoromethyl)phenyl]-7-[3-(trifluoromethyl)pyridin-2-yl]-6,7,8,9-tetrahydro-5H-pyrimido[4,5-d]azepin-4-amine trifluoroacetic acid salt]: the IC50 is 190 nM.

Consider `COCc1nc2c(c(Nc3ccc(C(F)(F)F)nc3)n1)CCN(c1ncccc1C(F)(F)F)CC2` [Example 346, 2-[(Methyloxy)methyl]-7-[3-(trifluoromethyl)pyridin-2-yl]-N-[6-(trifluoromethyl)pyridin-3-yl]-6,7,8,9-tetrahydro-5H-pyrimido[4,5-d]azepin-4-amine trifluoroacetic acid salt], for which the IC50 was above 6670 nM.

Take `COCc1nc2c(c(Nc3ccc(C(C)(C)C#N)cc3)n1)CCN(c1ncccc1C(F)(F)F)CC2` [Example 347, 2-Methyl-2-[4-({2-[(methyloxy)methyl]-7-[3-(trifluoromethyl)pyridin-2-yl]-6,7,8,9-tetrahydro-5H-pyrimido[4,5-d]azepin-4-yl}amino)phenyl]propanenitrile trifluoroacetic acid salt]: the IC50 was 1320 nM.

Take `FC(F)(F)c1ccc(Nc2nc(Sc3ccccc3)nc3c2CCN(c2ncccc2C(F)(F)F)CC3)cc1` [Example 349, 2-(Phenylsulfanyl)-N-[4-(trifluoromethyl)phenyl]-7-[3-(trifluoromethyl)pyridin-2-yl]-6,7,8,9-tetrahydro-5H-pyrimido[4,5-d]azepin-4-amine]: the IC50 amounted to 2350 nM.

Consider `O=S(=O)(c1ccc(Nc2nc(Sc3ccccc3)nc3c2CCN(c2ncccc2C(F)(F)F)CC3)cc1)C(F)(F)F` [Example 350, 2-(Phenylsulfanyl)-7-[3-(trifluoromethyl)pyridin-2-yl]-N-{4-[(trifluoromethyl)sulfonyl]phenyl}-6,7,8,9-tetrahydro-5H-pyrimido[4,5-d]azepin-4-amine], for which the IC50 was found to be 30 nM.

Turning to `Cc1cc(C(F)(F)F)ccc1Nc1nc(Sc2ccccc2)nc2c1CCN(c1ncccc1C(F)(F)F)CC2` [Example 351, N-[2-Methyl-4-(trifluoromethyl)phenyl]-2-(phenylsulfanyl)-7-[3-(trifluoromethyl)pyridin-2-yl]-6,7,8,9-tetrahydro-5H-pyrimido[4,5-d]azepin-4-amine], the IC50 is 750 nM.

As for `CN1CCC(C)(C)c2ccc(Nc3nc(Sc4ccccc4)nc4c3CCN(c3ncccc3C(F)(F)F)CC4)cc21` [Example 352, 2-(Phenylsulfanyl)-7-[3-(trifluoromethyl)pyridin-2-yl]-N-(1,4,4-trimethyl-1,2,3,4-tetrahydroquinolin-7-yl)-6,7,8,9-tetrahydro-5H-pyrimido[4,5-d]azepin-4-amine], the IC50 was above 6670 nM.

With `FC(F)(F)c1ccc(Nc2nc(SCc3ccccc3)nc3c2CCN(c2ncccc2C(F)(F)F)CC3)cc1` [Example 353, 2-[(Phenylmethyl)sulfanyl]-N-[4-(trifluoromethyl)phenyl]-7-[3-(trifluoromethyl)pyridin-2-yl]-6,7,8,9-tetrahydro-5H-pyrimido[4,5-d]azepin-4-amine], the IC50 was determined as 240 nM.

On to `FC(F)(F)c1ccc(Nc2nc(SC3CCCCC3)nc3c2CCN(c2ncccc2C(F)(F)F)CC3)cc1` [Example 354, 2-(Cyclohexylsulfanyl)-N-[4-(trifluoromethyl)phenyl]-7-[3-(trifluoromethyl)pyridin-2-yl]-6,7,8,9-tetrahydro-5H-pyrimido[4,5-d]azepin-4-amine], for which the half-inhibitory concentration (IC50) came out at 250 nM.

Turning to `CC(C)Sc1nc2c(c(Nc3ccc(C(F)(F)F)cc3)n1)CCN(c1ncccc1C(F)(F)F)CC2` [Example 355, 2-[(1-Methylethyl)sulfanyl]-N-[4-(trifluoromethyl)phenyl]-7-[3-(trifluoromethyl)pyridin-2-yl]-6,7,8,9-tetrahydro-5H-pyrimido[4,5-d]azepin-4-amine], the IC50 came to 60 nM.

In the case of `O=S(=O)(c1ccc(Nc2nc(SCc3ccccc3)nc3c2CCN(c2ncccc2C(F)(F)F)CC3)cc1)C(F)(F)F` [Example 359, 2-[(Phenylmethyl)sulfanyl]-7-[3-(trifluoromethyl)pyridin-2-yl]-N-{4-[(trifluoromethyl)sulfonyl]phenyl}-6,7,8,9-tetrahydro-5H-pyrimido[4,5-d]azepin-4-amine], the IC50 is 320 nM.

For the compound `O=S(=O)(c1ccc(Nc2nc(SC3CCCCC3)nc3c2CCN(c2ncccc2C(F)(F)F)CC3)cc1)C(F)(F)F` [Example 360, 2-(Cyclohexylsulfanyl)-7-[3-(trifluoromethyl)pyridin-2-yl]-N-{4-[(trifluoromethyl)sulfonyl]phenyl}-6,7,8,9-tetrahydro-5H-pyrimido[4,5-d]azepin-4-amine], the IC50 was 250 nM.

Regarding `CC(C)Sc1nc2c(c(Nc3ccc(S(=O)(=O)C(F)(F)F)cc3)n1)CCN(c1ncccc1C(F)(F)F)CC2` [Example 361, 2-[(1-Methylethyl)sulfanyl]-7-[3-(trifluoromethyl)pyridin-2-yl]-N-{4-[(trifluoromethyl)sulfonyl]phenyl}-6,7,8,9-tetrahydro-5H-pyrimido[4,5-d]azepin-4-amine], the IC50 was determined as 1530 nM.

For `CC(O)CSc1nc2c(c(Nc3ccc(S(=O)(=O)C(F)(F)F)cc3)n1)CCN(c1ncccc1C(F)(F)F)CC2` (centres unmarked) [Example 362, 1-({7-[3-(Trifluoromethyl)pyridin-2-yl]-4-({4-[(trifluoromethyl)sulfonyl]phenyl}amino)-6,7,8,9-tetrahydro-5H-pyrimido[4,5-d]azepin-2-yl}sulfanyl)propan-2-ol], the IC50 was determined as 190 nM.

For the compound `Cc1cc(C(F)(F)F)ccc1Nc1nc(SCc2ccccc2)nc2c1CCN(c1ncccc1C(F)(F)F)CC2` [Example 364, N-[2-Methyl-4-(trifluoromethyl)phenyl]-2-[(phenylmethyl)sulfanyl]-7-[3-(trifluoromethyl)pyridin-2-yl]-6,7,8,9-tetrahydro-5H-pyrimido[4,5-d]azepin-4-amine], the IC50 amounted to 1180 nM.

`Cc1cc(C(F)(F)F)ccc1Nc1nc(SC(C)C)nc2c1CCN(c1ncccc1C(F)(F)F)CC2` [Example 366, 2-[(1-Methylethyl)sulfanyl]-N-[2-methyl-4-(trifluoromethyl)phenyl]-7-[3-(trifluoromethyl)pyridin-2-yl]-6,7,8,9-tetrahydro-5H-pyrimido[4,5-d]azepin-4-amine]: the IC50 worked out at 130 nM.

On to `Cc1cc(C(F)(F)F)ccc1Nc1nc(SCC(C)O)nc2c1CCN(c1ncccc1C(F)(F)F)CC2` (centres unmarked) [Example 367, 1-[(4-{[2-Methyl-4-(trifluoromethyl)phenyl]amino}-7-[3-(trifluoromethyl)pyridin-2-yl]-6,7,8,9-tetrahydro-5H-pyrimido[4,5-d]azepin-2-yl)sulfanyl]propan-2-ol], for which the IC50 is above 6670 nM.

For the compound `Cc1cc(C(F)(F)F)ccc1Nc1nc(SC2CCOC2C)nc2c1CCN(c1ncccc1C(F)(F)F)CC2` (stereo not drawn) [Example 368, 2,5-Anhydro-1,4-dideoxy-3-S-(4-{[2-methyl-4-(trifluoromethyl)phenyl]amino}-7-[3-(trifluoromethyl)pyridin-2-yl]-6,7,8,9-tetrahydro-5H-pyrimido[4,5-d]azepin-2-yl)-3-thiopentitol], the IC50 is 20 nM.

Consider `Cc1cc(C(F)(F)F)ccc1Nc1nc(SC2CCOC2C)nc2c1CCN(c1ncccc1C(F)(F)F)CC2` (stereo not drawn) [Example 369, 2,5-Anhydro-1,4-dideoxy-3-S-(4-{[2-methyl-4-(trifluoromethyl)phenyl]amino}-7-[3-(trifluoromethyl)pyridin-2-yl]-6,7,8,9-tetrahydro-5H-pyrimido[4,5-d]azepin-2-yl)-3-thiopentitol], for which the IC50 was determined as 10 nM.

Regarding `CN1CCC(C)(C)c2ccc(Nc3nc(SCc4ccccc4)nc4c3CCN(c3ncccc3C(F)(F)F)CC4)cc21` [Example 370, 2-[(Phenylmethyl)sulfanyl]-7-[3-(trifluoromethyl)pyridin-2-yl]-N-(1,4,4-trimethyl-1,2,3,4-tetrahydroquinolin-7-yl)-6,7,8,9-tetrahydro-5H-pyrimido[4,5-d]azepin-4-amine], the IC50 turned out to be 2610 nM.

These data come from patent US9422293B2 (priority 2006, dated 2016).
